According to patent US8552058B2, “Application of L-n-butylphthalide in preventing and treating dementia” (CSPC Zhongqi Pharmaceutical Technology (Shijazhuang) Co., …, priority 2004, dated 2013):
Entries after “also recorded” stand apart in the source; their conditions may differ.

Assays:
Assay type in all cases: in vivo, Wistar rats
malondialdehyde (MDA) [1] = experiment: MDA content in cortex and hippocampus of hypoperfused (2-VO) rats; details: 10 mg/kg
[2] = tested on: glutathione peroxidase (GSH-Px); experiment: GSH-Px activity in cortex and hippocampus after continuous perfusion of Aβ (1-40); details: Aβ (1-40) rats; for GSH-PX, hippocampus / GSH-PX, cortex: n = 7; for GSH-PX, hippocampus: model 9.32 ± 1.01, sham 16.19 ± 1.19; for GSH-PX, cortex: model 11.18 ± 1.32, sham 15.86 ± 0.91
Procedure: (§1) Male Wistar rats, which were 10-weeks old and weighed approximately 280 grams, were used. One animal was placed in one cage, while the room temperature was kept at 23° C., with food and water freely accessible. Rats were anaesthetized with sodium pentobarbital (40 mg/kg), and were fixed to stereotaxic apparatus with the position of ventral decubitus. Head skin was cut open, a cannula for Aβ (1-40) perfusion was implanted into right ventricle. According to the stereotaxic profile of rat brain by Paxions and Watson, the implantation site was located 0.3 mm behind and 1.1 mm in the right side of anterior fontanelle, with the depth of 4.0 mm. The cannula was connected to a micro-osmotic pump. The pump was placed on the back of the rat. Aβ (1-40) was dissolved in 35% acetonitrile/0.1% trifluroacetic acid, and was continuously perfused intracerebroventricularly (i.c.v.) at 300 pmol/day, while only the solvent (35% acetonitrile/0.1% trifluroacetic acid) was perfused in the control group.
(§2) Rats were randomly classified into […] groups, with 10 animals per group. 1) the sham surgery group: only 35% acetonitrile/0.1% trifluroacetic acid+solvent was perfused into the ventricles of the rats; 2) the model group: Aβ (1-40)+solvent; 3) Aβ (1-40)+L-NBP 10 mg/kg group; 4) Aβ (1-40)+L-NBP 30 mg/kg group. Respective drug or solvent was drenched since the 2nd day after the surgery. The water maze experiment was performed on the 9-13 day after the surgery, while the platform exploration experiment was performed on the 13th day, and the working memory test was performed on the 14-16th days. Animals were decapitated to remove brains for biochemical assay on the 17th day. In all ethological tests, medicines were administered 40 minutes prior to the respective test.
(§3) Malondialdehyde (MDA) and glutathione peroxidase (GSH-Px) were determined by the same assays as above.
(§4) All results were expressed in mean±standard error. Comparison of latencies between groups in water maze experiment was performed using two-factor analysis of variance in replicate. Comparison between groups was performed using post hoc LSD or Turkey test. Platform exploration test in water maze experiment, working memory test and biochemical assay were analyzed using one-factor analysis of variance. A difference was considered significant when p<0.05.

[3] = tested on: Superoxide dismutase (SOD); experiment: SOD activity in cortex and hippocampus of hypoperfused (2-VO) rats; details: 10 mg/kg
[4] = tested on: neurons, substantia alba of optic tracts and GFAP-positive astrocytes in brain; experiment: Pathological and immunohistochemical detection (H-E, K-B, GFAP staining) in 2-VO rats
Procedure: Male Wistar rats, which were 10-weeks old and weighed approximately 280 grams, were used. 5 animals were placed in each cage, while the room temperature was kept at 23° C., with food and water freely accessible. Rats were anaesthetized with sodium pentobarbital (40 mg/kg), then bilateral common carotid arteries were exposed and the envelope of common carotid arteries and vagus nerve was carefully separated. For the hypoperfusion model group, bilateral common carotid arteries were ligated with 5-0 silk thread. For the sham surgery group, the same operation was conducted but with no ligation of bilateral common carotid arteries. A little of sterile crystalline sulfanilamide powder was applied on the wound after the surgery, then the skin was sutured. One month after the surgery, water maze and step-through test were performed. Rats were randomly assigned into 8 groups, with 10 animals per group. 1) sham surgery group: the same operation as that in hypoperfusion group was conducted but without ligation of bilateral common carotid arteries; 2) solvent control group: only vegetable oil was orally administered; 3) DL-NBP 10 mg/kg group; 4) DL-NBP 30 mg/kg group; 5) L-NBP 10 mg/kg group; 6) L-NBP 30 mg/kg group; 7) D-NBP 30 mg/kg group; Respective medicines or solvent were drenched since the 10th day after the surgery. Water maze experiments were performed on the 29-33rd days since the surgery, while step-through tests were performed on the 34-35th days since the surgery. Animals were killed for biochemical assay or pathological examination on the 36th day. In all the ethological tests, medicines were administered 40 minutes prior to respective test. 4-6 animals were chosen from each group randomly. After the ethological experiments, rats were anaesthetized with pentobarbital (100 mg/kg ip). Animal's skin and thorax was sequentially cut open and the heart was sufficiently exposed. Left tip of the heart was cut open, a perfusion needle was inserted along the aorta. After clamping with hemostat, physiological saline was infused. […]

[5] = tested on: choline acetyltransferase (ChAT); experiment: ChAT activity in cortex and hippocampus of hypoperfused (2-VO) rats; details: 10 mg/kg
malondialdehyde (MDA) [6] = experiment: MDA content in cortex and hippocampus after continuous perfusion of Aβ (1-40); details: Aβ (1-40) rats; for MDA, hippocampus / MDA, cortex: n = 7; for MDA, hippocampus: model 1.48 ± 0.12, sham 1.13 ± 0.06; for MDA, cortex: model 1.48 ± 0.14, sham 1.10 ± 0.09
Procedure: as §1, §2, §3, §4

Structure (SMILES): CCCC[C@@H]1OC(=O)c2ccccc21 [L-NBP, L-n-butylphthalide]
- reduction of MDA content in cortex (malondialdehyde (MDA) [1]; 2-VO rats, vs model group, p<0.001): 20.7%
- MDA content, hippocampus (malondialdehyde (MDA) [1]; hypoperfused rats, n = 7-9, solvent control 3.63 ± 0.45, sham 3.03 ± 0.12): 3.42 ± 0.12 nmol/mg protein
- MDA content, cortex (malondialdehyde (MDA) [1]; hypoperfused rats, n = 7-9, solvent control 3.91 ± 0.22, sham 3.13 ± 0.10, p<0.001 vs solvent control): 3.10 ± 0.09 nmol/mg protein
- GSH-Px activity after treatment (in words) ([2]; 10 mg/kg): could also increase the activity of GSH-Px, but with no statistically significant difference
- GSH-PX, hippocampus ([2]; 10 mg/kg): 12.73 ± 1.34 U/mg protein
- GSH-PX, cortex ([2]; 10 mg/kg): 11.73 ± 0.53 U/mg protein
- GSH-PX, hippocampus ([2]; 30 mg/kg, p<0.01 vs model): 18.91 ± 1.16 U/mg protein
- GSH-PX, cortex ([2]; 30 mg/kg, p<0.01 vs model): 15.40 ± 1.03 U/mg protein
- GSH-Px activity after treatment (in words) ([2]; 30 mg/kg, p<0.01): increased significantly
- GSH-Px activity and MDA content (overall conclusion) [2]: could improve GSH-Px activity and reduce MDA content
- SOD activity in hippocampus after treatment (in words) ([3]; 2-VO rats, p<0.05): returned close to the normal level
- SOD activity, hippocampus ([3]; hypoperfused rats, n = 7-9, solvent control 81.16 ± 6.84, sham 57.90 ± 7.41, p<0.05 vs solvent control): 57.60 ± 3.86 NU/mg protein
- SOD activity, cortex ([3]; hypoperfused rats, n = 7-9, solvent control 114.42 ± 7.82, sham 100.07 ± 3.64): 98.84 ± 5.53 NU/mg protein
- number of GFAP-positive astrocytes (immunohistochemistry) ([4]; 10 mg/kg): greatly reduced
- sparse substantia alba / vacuola in optic tracts (K-B staining) ([4]; 10 mg/kg extended administration): significant reduction of vacuola
- neuronal damage in cortex and hippocampal CA1 induced by hypoperfusion (H-E staining) ([4]; 10 mg/kg, 5 weeks after ligation): could be significantly ameliorated
- improvement of cortical ChAT activity as compared with the model group ([5]; continuous administration for 16 days, 2-VO rats, p<0.05): 37.1%
- ChAT activity, cortex ([5]; hypoperfused rats, n = 7-9, solvent control 65.6 ± 15.1, p<0.05 vs solvent control): 104.3 ± 8.2 % of sham
- ChAT activity, hippocampus ([5]; hypoperfused rats, n = 7-9, solvent control 102.6 ± 15.1): 110.0 ± 13.5 % of sham
- MDA, hippocampus (malondialdehyde (MDA) [6]; 10 mg/kg, p<0.01 vs model): 1.12 ± 0.07 nmol/mg protein
- MDA, cortex (malondialdehyde (MDA) [6]; 10 mg/kg, p<0.05 vs model): 1.06 ± 0.05 nmol/mg protein
- reduction of hippocampal MDA content (malondialdehyde (MDA) [6]; 10 mg/kg, vs model, p<0.01): 24.3%
- reduction of cortical MDA content (malondialdehyde (MDA) [6]; 10 mg/kg, vs model, p<0.05): 28.4%
- MDA, hippocampus (malondialdehyde (MDA) [6]; 30 mg/kg, p<0.05 vs model): 1.15 ± 0.07 nmol/mg protein
- MDA, cortex (malondialdehyde (MDA) [6]; 30 mg/kg, p<0.05 vs model): 1.06 ± 0.10 nmol/mg protein
- effect on cortical and hippocampal MDA content (in words) (malondialdehyde (MDA) [6]; 30 mg/kg, vs model group p<0.05): weaker than that in the 10 mg/kg group, yet were still significantly different; also recorded: a little weaker in the 30 mg/kg group than in the 10 mg/kg group, yet still significantly different
